Key:
[1] = tested on: Rattus norvegicus; conditions: inhalation
[2] = tested on: Anas platyrhynchos; conditions: short-term; oral; feed; mortality
[3] = tested on: Colinus virginianus; conditions: acute, oral, mortality; for LC50: diet
[4] = reproduction developmental, mortality

| Compound | NOAEL ([1]; chronic, duration: 2 years) [mg/kg-day] | NOAEL [1, 4] [mg/kg-day] | NOAEL ([1]; subchronic, duration: 90 days) [mg/kg-day] | LC50 [2] [mg/kg] | LC50 [3] [mg/kg] | LD50 [3] [mg/kg-day] |
| --- | --- | --- | --- | --- | --- | --- |
| P [Phosphine] | 1.1 | 1.9 | 1.1 | 762 | 124 | < 9.2 |
| [Ca+2].[Ca+2].[Ca+2].[P-3].[P-3] [Tricalcium diphosphide] | 1.1 | 1.9 | 1.1 | 2040 | 330 | < 24.7 |
